Measurements published in patent US11147272B2, “Pyridone compounds and agricultural and horticultural fungicides comprising the same as active ingredients” (MITSUI CHEMICALS AGRO, INC., priority 2017, dated 2021).

How the values were obtained:
[1] = tested on: Blumeria graminis f. sp. hordei; assay: Test Example D: Powdery mildew on barley; conditions: Powdery mildew on barley; class of control value
Plasmopara viticola = assay: Test Example G: Downy mildew on vine; conditions: Downy mildew on vine (Neomuscat); 250 ppm spray, 2.5 ml/pot; assessed 7 to 10 days after inoculation
Magnaporthe grisea = assay: whole plant or invertebrate; type: in vivo; conditions: Blast on rice; class of control value
Botrytis cinerea = assay: Test Example B: Gray mold on tomato; conditions: Gray mold on tomato; class of control value
[2] = tested on: Colletotrichum orbiculare; assay: Test Example H: Anthracnose on cucumber; conditions: Anthracnose on cucumber (Sagami Hanjiro); 250 ppm spray, 2.5 ml/pot; assessed 6 to 10 days after inoculation
Protocol: Seeds of a test plant (cucumber variety: Sagami Hanjiro) were planted and cultivated until the first leaf appeared. In the test, the inventive compounds were dissolved into dimethyl sulfoxide-methanol mixture solution (volume ratio: 9/1), and the resultant solutions were diluted with well water to a concentration of 250 ppm to obtain the drug solutions. The drug solutions were sprayed to the test plant (2.5 ml/pot). After the drug solutions dried, a conidial suspension (2-4×10^5 conidia/ml) of Colletotrichum orbiculare was inoculated to the plant by spraying. After the inoculation, the plant was kept in a mist chamber at room temperature of 20 to 23° C. for about 24 hours to promote the onset of disease. The degrees of disease development were investigated 6 to 10 days after the inoculation, and the effectiveness of the drug solutions was evaluated.
In Test Examples described above, the degrees of disease development were evaluated in increments of 0.05 from 0 (as no incidence of disease) to 3 (as the degree of disease development in an untreated plant group). Further, control values were calculated using the following equation based on the degree of disease development.
n=Degree of disease development in each treated group
In the table, H: more than 50% control value, L: 50% or less control value, and nt: not tested.

Alternaia brassicicola = assay: Test Example C: Alternaria sooty spot on cabbage; type: in vivo; conditions: Alternaria sooty spot on cabbage; class of control value
Source text: Seeds of a test plant (cabbage variety: Shikidori) were planted and cultivated until the cotyledons extended.
<Control Value> Control value=100{1−(n/3)}

Phytophthora infestans = assay: whole plant or invertebrate; type: in vivo; conditions: Late blight on tomato; class of control value
Puccinia recondita = assay: Test Example E: Brown rust on wheat; type: in vivo; conditions: Brown rust on wheat; class of control value

SMILES	Test D control value class [1]	Test G control value class (Plasmopara viticola)	Test A control value class (Magnaporthe grisea)	Test B control value class (Botrytis cinerea)	Test H control value class [2]	Test C control value class (Alternaia brassicicola)	Test F control value class (Phytophthora infestans)	Test E control value class (Puccinia recondita)
CCn1c(-c2c(F)cc(F)cc2F)c(CC(C)C)cc(Br)c1=O [compound 40]	H (more than 50% control value)	L (50% or less control value)	H (more than 50% control value)	H (more than 50% control value)	H (more than 50% control value)	H (more than 50% control value)	L (50% or less control value)	H (more than 50% control value)
CCn1c(-c2c(F)cc(F)cc2F)c(CC(C)C)cc(Cl)c1=O [compound 41]	H (more than 50% control value)	H (more than 50% control value)	H (more than 50% control value)	H (more than 50% control value)	H (more than 50% control value)	H (more than 50% control value)	L (50% or less control value)	H (more than 50% control value)
CCn1c(-c2c(F)cc(OC)cc2F)c(CC(C)C)cc(Cl)c1=O [compound 42]	H (more than 50% control value)	H (more than 50% control value)	H (more than 50% control value)	H (more than 50% control value)	H (more than 50% control value)	H (more than 50% control value)	L (50% or less control value)	H (more than 50% control value)
CCn1c(-c2c(F)cc(OC)cc2F)c(CC(C)C)cc(Br)c1=O [compound 43]	H (more than 50% control value)	H (more than 50% control value)	H (more than 50% control value)	H (more than 50% control value)	H (more than 50% control value)	H (more than 50% control value)	L (50% or less control value)	H (more than 50% control value)
CCn1c(-c2c(F)cccc2F)c(CO)cc(Cl)c1=O [compound 44]	L (50% or less control value)	L (50% or less control value)	L (50% or less control value)	H (more than 50% control value)	L (50% or less control value)	H (more than 50% control value)	L (50% or less control value)	H (more than 50% control value)
CCn1c(-c2c(F)cccc2F)c(COC)cc(Cl)c1=O [compound 45]	H (more than 50% control value)	L (50% or less control value)	H (more than 50% control value)	H (more than 50% control value)	L (50% or less control value)	H (more than 50% control value)	L (50% or less control value)	H (more than 50% control value)
CCC(O)c1cc(Cl)c(=O)n(CC)c1-c1c(F)cc(F)cc1F (centres unmarked) [compound 46]	H (more than 50% control value)	L (50% or less control value)	H (more than 50% control value)	H (more than 50% control value)	H (more than 50% control value)	H (more than 50% control value)	L (50% or less control value)	H (more than 50% control value)
CCC(OC)c1cc(Cl)c(=O)n(CC)c1-c1c(F)cc(F)cc1F (centres unmarked) [compound 47]	H (more than 50% control value)	H (more than 50% control value)	H (more than 50% control value)	H (more than 50% control value)	H (more than 50% control value)	H (more than 50% control value)	L (50% or less control value)	H (more than 50% control value)
CCC(OC)c1cc(Cl)c(=O)n(CC)c1-c1c(F)cc(OC)cc1F (centres unmarked) [compound 48]	H (more than 50% control value)	H (more than 50% control value)	H (more than 50% control value)	H (more than 50% control value)	H (more than 50% control value)	H (more than 50% control value)	L (50% or less control value)	H (more than 50% control value)
CCC(=O)c1cc(Cl)c(=O)n(CC)c1-c1c(F)cc(F)cc1F [compound 49]	H (more than 50% control value)	L (50% or less control value)	H (more than 50% control value)	H (more than 50% control value)	H (more than 50% control value)	H (more than 50% control value)	L (50% or less control value)	H (more than 50% control value)
CCC(O)c1cc(Cl)c(=O)n(CC)c1-c1c(F)cc(OC)cc1F (centres unmarked) [compound 50]	L (50% or less control value)	H (more than 50% control value)	H (more than 50% control value)	H (more than 50% control value)	H (more than 50% control value)	H (more than 50% control value)	L (50% or less control value)	H (more than 50% control value)
CCC(=O)c1cc(Cl)c(=O)n(CC)c1-c1c(F)cc(OC)cc1F [compound 51]	H (more than 50% control value)	L (50% or less control value)	H (more than 50% control value)	H (more than 50% control value)	H (more than 50% control value)	H (more than 50% control value)	L (50% or less control value)	H (more than 50% control value)
CCn1c(-c2c(F)cc(F)cc2F)c(C(C)(O)CC)cc(Cl)c1=O (centres unmarked) [compound 52]	H (more than 50% control value)	H (more than 50% control value)	H (more than 50% control value)	H (more than 50% control value)	H (more than 50% control value)	H (more than 50% control value)	L (50% or less control value)	H (more than 50% control value)
CCn1c(-c2c(F)cc(F)cc2F)c(C(C)(CC)OC)cc(Cl)c1=O (centres unmarked) [compound 54]	H (more than 50% control value)	L (50% or less control value)	H (more than 50% control value)	H (more than 50% control value)	H (more than 50% control value)	H (more than 50% control value)	L (50% or less control value)	H (more than 50% control value)
CCn1c(-c2c(F)cc(OC)cc2F)c(C(C)(CC)OC)cc(Cl)c1=O (centres unmarked) [compound 55]	H (more than 50% control value)	L (50% or less control value)	H (more than 50% control value)	H (more than 50% control value)	H (more than 50% control value)	H (more than 50% control value)	L (50% or less control value)	H (more than 50% control value)
CCn1c(-c2c(F)cc(F)cc2F)c(C(C)(F)CC)cc(Cl)c1=O (centres unmarked) [compound 56]	H (more than 50% control value)	H (more than 50% control value)	H (more than 50% control value)	H (more than 50% control value)	H (more than 50% control value)	H (more than 50% control value)	L (50% or less control value)	H (more than 50% control value)
